Assay results from PMC6449294, “SNAPshots of the MCHR1: a Comparison Between the PET-Tracers [^18F]FE@SNAP and [^11C]SNAP-7941” (Molecular Imaging and Biology, 2018).
Read-outs that look alike come from different tables or passages of the source.

Key:
P-gp/BCRP = assay: Small animal PET of mouse brain, vehicle vs pretreatment with P-gp/BCRP inhibitor TQD; type: in vivo; conditions: mice, TQD 15 mg/kg 30 min before radiotracer
Method: Ten-week-old male rats (412 ± 58 g, Sprague-Dawley, HIM:OFA, n = 30) and 12-week-old male mice (24 ± 6 g, BALB/cAnNRj, n = 7) were purchased from the Division of Laboratory Animal Science and Genetics, Himberg, Austria. Animals were kept under conventional housing conditions (22 ± 1 °C; 40–70 % humidity) with food and water supply ad libitum and 12-h day/night cycle. All animals were treated according to the European Union rules on animal care and respective animal experiments were approved by the Austrian Ministry of Sciences, Research and Economy (BMWFW-66.009/0029-WF/V/3b/20159). For in vivo imaging, animals were anesthetized using 1.5–2 % isoflurane mixed with oxygen (1.5–2 l/min) to avoid movement during the examination. Anesthesia as well as vital parameters were monitored during the time interval of PET acquisition. Radioligands and non-labeled compounds were administered intravenously via the lateral tail vein.
Anesthetized rats and mice were immobilized in a multimodal animal carrier unit (MACU; medres®—medical research GmbH, Cologne, Germany). The body temperature was preserved at 37 °C throughout the whole experiment. […]

[1] = Ex vivo metabolites in rat brain (radio-HPLC)
Method: For the analysis of potential radiometabolites, blood samples (50–80 μl) from rats were withdrawn at 10 and 45 min for [^11C]SNAP-7941 and at 10, 30, and 60 min for [^18F]FE@SNAP and immediately subjected to the equivalent amount of acetonitrile, homogenized, and stored on ice before processing. Additionally, [^18F]FE@SNAP was administered to three rats, which were sacrificed after 45 min. Whole brains were harvested and homogenized with equivalent amounts (500–800 μl) of acetonitrile and 0.9 % saline solution using an ULTRA-TURRAX® (T25 basic, IKA Laboratory Equipment, Staufen, Germany). Subsequently, blood and brain were centrifuged (23,000 ×g, 4 min, 4 °C; Hettich Universal 30RF, Tuttlingen, Germany), and the obtained supernatant was analyzed by an analytical HPLC equipped with a radioactivity detector (radio-HPLC) (stationary phase: Chromolith® Performance RP-18e, 100–4.6 mm; precolumn: Chromolith® Guard Cartridge RP-18e, 5–4.6 mm; Merck, Darmstadt, Germany), mobile phase: (water/acetic acid 97.5/2.5 v/v; 2.5 g/l ammonium acetate; pH 3.5)/acetonitrile 70/30 v/v; flow: 1 ml/min, λ = 254 nm). The ratio between metabolite and intact radiotracer was calculated using quantitative HPLC analysis.

[2] = set-up: method as in PMID 23829932, PMID 24106662, PMID 27033361; conditions: result in words, not determined in this paper for this tracer; cited from earlier work

Row | SMILES | increase of brain uptake in TQD blocking group vs vehicle (P-gp/BCRP) [fold] | intact tracer in rat brain ([1]; 45 min) [%] | Metabolism in rat brain ([1]; ex vivo, result in words) | Metabolism in rat brain [2]
1 | COCC1=C(C(=O)OCC[18F])C(c2ccc(F)c(F)c2)N(C(=O)NCCCN2CCC(c3cccc(NC(C)=O)c3)CC2)C(=O)N1 (stereo not shown) [[^18F]FE@SNAP] | 1.93 | 22.37 ± 5.8 | Rapidly metabolized | –
2 | COCC1=C(C(=O)O[11CH3])C(c2ccc(F)c(F)c2)N(C(=O)NCCCN2CCC(c3cccc(NC(C)=O)c3)CC2)C(=O)N1 (stereo not shown) [[^11C]SNAP-7941] | – | – | – | Stable
